This passage reports SEV, Astringency and Botanical notes results from patent US20190223483A1, “SENSORY MODIFIER COMPOUNDS” (CARGILL, INCORPORATED, priority 2017, published 2019).

What all share (type): in vivo
A short description of test [1]: Sweetness intensity (SEV) by trained panel against 1%-14% sucrose standards. Here is the method: In some aspects, the amount of sensory modifier compound effective to increase sweetness intensity can be determined by panel testing with trained panelists. For example, […] can be determined by the following test: Solutions were prepared by dissolving steviol glycosides and sensory modifier compounds into reverse osmosis water at the indicated concentrations and/or ratios. Solutions were tested by a panel of at least four individuals that are highly-trained in tasting steviol glycoside solutions. The highly-trained panelists were trained against a standard range of 1%, 2%, 3%, 4%, 5%, 6%, 7%, 8%, 9%, 10%, 11%, 12%, 13%, and 14% sucrose solutions corresponding to 1, 2, 3, 4, 5, 6, 7, 8, 9, 10, 11, 12, 13, and 14 SEV. To test each solution, the highly-trained panelists dispensed approximately 2 mL of each solution into their own mouths by transfer pipet, dispersed the solution by moving their tongues, and recorded an SEV value for each solution based on comparison to the 1%, 2%, 3%, 4%, 5%, 6%, 7%, 8%, 9%, 10%, 11%, 12%, 13%, and 14% sucrose solutions. Between tasting solutions, the panelists were able to cleanse their palates with water. […] For sweetness intensity, the panelists focused on, and only recorded, the sweetness intensity in SEV that they tasted while disregarding other attributes of the solution. At the highest concentrations of steviol glycoside and sensory modifier compound, the panelists found other attributes to be highly noticeable, but recorded the isolated sweetness intensity for each solution despite these other attributes. Exemplary tests are described below in Example 1.
All solutions were prepared by dissolving steviol glycosides and sensory modifier compounds into reverse osmosis water at the indicated concentrations and/or ratios.
For sweetness intensity, the solutions were tested by a panel of at least four individuals that are highly-trained in tasting steviol glycoside solutions. The highly-trained panelists were trained against a standard range of 1%, 2%, 3%, 4%, 5%, 6%, 7%, 8%, 9%, 10%, 11%, 12%, 13%, and 14% sucrose solutions corresponding to 1, 2, 3, 4, 5, 6, 7, 8, 9, 10, 11, 12, 13, and 14 SEV. To test each solution, the highly-trained panelists dispensed approximately 2 mL of each solution into their own mouths by transfer pipet, dispersed the solution by moving their tongues, and recorded an SEV value for each solution based on comparison to the 1%, 2%, 3%, 4%, 5%, 6%, 7%, 8%, 9%, 10%, 11%, 12%, 13%, and 14% sucrose solutions. Between tasting solutions, the panelists were able to cleanse their palates with water. […] For this example, the panelists focused on and only recorded the sweetness intensity in SEV that they tasted while disregarding other attributes of the solution. At the highest concentrations of steviol glycoside and sensory modifier compound, the panelists found other attributes to be highly noticeable, but recorded the isolated sweetness intensity for each solution despite these other attributes.

Test [2] can be described thus: Roundtable assessment of astringency. On the set-up: key: 0 = none; 1 = trace/faint; 2 = slight; 3 = moderate; 4 = definite; 5 = strong; 6 = extreme.
Experimental: Solutions of steviol glycosides and sensory modifier compound were prepared at increasing ratios of sensory modifier to steviol glycoside by weight. […] The concentration of steviol glycosides was 700 ppm in each solution. The solutions were tested for astringency.
A short description of test [3]: Roundtable assessment of botanical notes (scale 0 to 5). On the set-up: key: 0 = none; 1 = trace/faint; 2 = slight; 3 = moderate; 4 = definite; 5 = strong; 6 = extreme. Here is the method:
For other sweetness attributes, the solutions were tested by a panel of at least four individuals that are highly-trained in tasting steviol glycoside solutions. The highly-trained panelists used a roundtable methodology to assess each sweetness attribute. To test each solution, the highly-trained panelists dispensed approximately 2 mL of each solution into their own mouths by transfer pipet, dispersed the solution by moving their tongues, and recorded a value for the particular sweetness attribute being tested. Between tasting solutions, the panelists were able to cleanse their palates with water. For each sweetness attribute, the panelist agreed on a descriptive scale with relative intensities assigned for each sweetness attribute and then recorded the values for each sweetness attribute against this. For example, this roundtable assessment of sweetness linger assigned a scale of 0 to 6 with a score of 0 indicating no sweetness linger and a score of 6 indicating extreme sweetness linger. Roundtable assessment of sweetness linger assigned a scale of 0 to 6 with a score of 0 indicating no sweetness linger and a score of 6 indicating extreme sweetness linger (0=none, 1=trace, 2=slight, 3=moderate, 4=definite, 5=strong, 6=extreme). Roundtable assessment of rounded assigned a scale of 0 to 3 with a score of 0 indicating spikey and a score of 3 indicating desirable rounded (0=none, 1=mostly spikey, some rounded, 2=mostly rounded, some spikey, 3=rounded). Roundtable assessment of mouthfeel assigned a scale of 0 to 2 with a score of 0 indicating water and a score of 2 indicating syrupy (0=water, 1=sucrosey, 2=syrupy). Roundtable assessment of bitterness assigned a scale of 0 to 6 with a score of 0 indicating no bitterness and a score of 6 indicating extreme sweetness linger (0=none, 1=trace, 2=slight, 3=moderate, 4=definite, 5=strong, 6=extreme). Roundtable assessment of off tastes assigned a scale of 0 to 6 with a score of 0 indicating no bitterness and a score of 6 indicating extreme off tastes (0=none, 1=trace, 2=slight, 3=moderate, 4=definite, 5=strong, 6=extreme).
Roundtable assessment of botanical notes assigned a scale of 0 to 5 with a score of 0 indicating no botanical notes and a score of 5 indicating strong (0=none, 1=trace, 2=slight, 3=moderate, 4=definite, 5=strong).
A series of assays were carried out to characterize botanical notes of sensory modifier compound (0=none, 1=trace/faint, 2=slight, 3=moderate, 4=definite, 5=strong) in steviol glycoside compositions using the roundtable methodology described in Example 1. […] Solutions of steviol glycosides and sensory modifier compound were prepared at increasing ratios of sensory modifier to steviol glycoside by weight. […] The concentration of steviol glycosides was 700 ppm in each solution. The solutions were tested for botanical notes.

The mark [4] stands for this setting: steviol glycoside 700 ppm + yerba mate mono/dicaffeoylquinic acids 270 ppm.
The mark [5] stands for this setting: steviol glycoside 700 ppm + yerba mate mono/dicaffeoylquinic acids 540 ppm.
[6] abbreviates: steviol glycoside 700 ppm + yerba mate mono/dicaffeoylquinic acids 810 ppm.
Where [7] appears, read: steviol glycoside 700 ppm, sensory modifier 0 ppm.

On to `C=C1C[C@@]23CC[C@H]4[C@@](C)(CCC[C@@]4(C)C(=O)O[C@@H]4O[C@H](CO)[C@@H](O)[C@H](O)[C@H]4O[C@@H]4O[C@H](CO)[C@@H](O)[C@H](O)[C@H]4O)[C@@H]2CC[C@]1(O[C@@H]1O[C@H](CO)[C@@H](O)[C@H](O[C@@H]2O[C@H](CO)[C@@H](O)[C@H](O)[C@H]2O)[C@H]1O[C@@H]1O[C@H](CO)[C@@H](O)[C@H](O)[C@H]1O)C3` [RebD, Rebaudioside D], for which the SEV came out at 8.5 in test [1] (setting [4]), 8.5 in test [1] (setting [5]), 8.5 in test [1] (setting [6]) and 8 in test [1] (setting [7]). Besides, the Astringency in test [2] (setting [4]) is on record as 2; in test [2] (setting [5]), 1; in test [2] (setting [6]) it was 2; in test [2] (setting [7]), “Not observed”. Further, the Botanical notes result in test [3] (Reb D 700 ppm, 0 ppm to about 500 ppm sensory modifier) is recorded as “no perceptible botanical notes”; in test [3] (Reb D 700 ppm, about 800 ppm sensory modifier), “slight”; in test [3] (setting [4]), 0; in test [3] (setting [5]), 0; in test [3] (setting [6]), 2; in test [3] (setting [7]) it was “Not observed”.
